Laboratory results reported in publication PMC3177605 (Bioorganic & medicinal chemistry letters, 2009).

What was measured:
mGluR5 [1] = test: functional mGluR5 antagonist assay; type: cell-based; conditions: for IC50 in functional HTS: identified from the functional HTS
mGluR5 [2] = molecular target: mGluR5 (Rattus norvegicus, UniProt P31424); test: functional mGluR5 antagonist assay; type: cell-based
Chain of mGluR5 (Rattus norvegicus, UniProt P31424) (P31424 21-1203): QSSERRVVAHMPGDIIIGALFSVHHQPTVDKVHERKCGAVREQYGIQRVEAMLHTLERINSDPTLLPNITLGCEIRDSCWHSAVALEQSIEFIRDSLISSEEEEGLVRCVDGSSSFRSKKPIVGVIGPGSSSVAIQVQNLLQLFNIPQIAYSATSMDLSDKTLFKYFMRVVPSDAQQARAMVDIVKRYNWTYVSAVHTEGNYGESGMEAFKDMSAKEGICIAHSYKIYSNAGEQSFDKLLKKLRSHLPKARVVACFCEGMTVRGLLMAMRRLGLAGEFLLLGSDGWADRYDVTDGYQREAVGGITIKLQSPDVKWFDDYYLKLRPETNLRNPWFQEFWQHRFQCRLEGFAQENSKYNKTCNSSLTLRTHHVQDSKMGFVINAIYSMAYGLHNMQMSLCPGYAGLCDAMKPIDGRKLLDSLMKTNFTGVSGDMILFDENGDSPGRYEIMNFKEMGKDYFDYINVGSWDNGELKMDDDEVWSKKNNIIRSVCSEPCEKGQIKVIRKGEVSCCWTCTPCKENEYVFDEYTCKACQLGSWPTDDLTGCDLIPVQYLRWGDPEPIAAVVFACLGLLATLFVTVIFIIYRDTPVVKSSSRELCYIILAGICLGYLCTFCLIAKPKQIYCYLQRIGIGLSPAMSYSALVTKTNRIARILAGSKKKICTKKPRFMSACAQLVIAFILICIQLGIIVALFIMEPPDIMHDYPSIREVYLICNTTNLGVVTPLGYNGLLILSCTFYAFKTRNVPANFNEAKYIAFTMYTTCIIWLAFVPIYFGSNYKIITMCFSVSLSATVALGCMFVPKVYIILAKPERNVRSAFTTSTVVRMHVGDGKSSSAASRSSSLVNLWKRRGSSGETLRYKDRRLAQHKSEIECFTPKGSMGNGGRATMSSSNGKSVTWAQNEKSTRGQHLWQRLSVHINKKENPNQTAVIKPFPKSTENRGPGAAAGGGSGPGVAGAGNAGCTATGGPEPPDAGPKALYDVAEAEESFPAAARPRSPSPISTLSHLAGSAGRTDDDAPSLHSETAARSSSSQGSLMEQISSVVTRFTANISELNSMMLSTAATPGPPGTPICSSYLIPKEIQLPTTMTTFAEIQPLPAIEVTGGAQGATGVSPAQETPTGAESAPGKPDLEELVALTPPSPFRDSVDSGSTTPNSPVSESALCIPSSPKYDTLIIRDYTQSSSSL

Chain of mGluR5 (P31424 21-1203): as above

## O=C(c1ccco1)N1CCCC2(CCCCC2)C1 [Cmpd 10]
mGluR5 [1]
  IC50 in functional HTS: submicromolar

## O=C(N1CCN(c2ccccn2)CC1)C12CC3CC(CC(C3)C1)C2 [Cmpd 11]
mGluR5 [1]
  IC50 in functional HTS: submicromolar

## O=C(N1CCN(c2ccncc2)CC1)C12CC3CC(CC(C3)C1)C2 [Cmpd 20b]
mGluR5 [1]
  mGluR5 inhibitory activity: loses all mGluR5 inhibitory activity

## Cc1cc(C)c2c(N)c(C(=O)c3ccc(F)cc3)oc2n1 [Cmpd 12, (3-amino-4,6-dimethylfuro[2,3-b]pyridine-2-yl)(4-fluorophenyl)methanone]
mGluR5 [2]; read-out: mGluR5 IC50, newly synthesized material
  IC50: 150 nM
mGluR5 [2]; upon resynthesis
  % Glu Max: 1.39%
